In patent publication US6831075B2, “Heterocyclic substituted pyrazolones” (Cephalon, Inc., priority 1999, dated 2004):

Each compound was assayed against T1, baculovirus-expressed human trkA cytoplasmic domain (Homo sapiens, UniProt P04629) (assay: trkA tyrosine kinase inhibition assay (ELISA-based)). Settings: 1 uM compound; 40 μM ATP.
T1 construct: baculovirus-expressed human trkA cytoplasmic domain; host or cells: baculovirus expression system
T1 sequence (P04629 440-796 limits assumed): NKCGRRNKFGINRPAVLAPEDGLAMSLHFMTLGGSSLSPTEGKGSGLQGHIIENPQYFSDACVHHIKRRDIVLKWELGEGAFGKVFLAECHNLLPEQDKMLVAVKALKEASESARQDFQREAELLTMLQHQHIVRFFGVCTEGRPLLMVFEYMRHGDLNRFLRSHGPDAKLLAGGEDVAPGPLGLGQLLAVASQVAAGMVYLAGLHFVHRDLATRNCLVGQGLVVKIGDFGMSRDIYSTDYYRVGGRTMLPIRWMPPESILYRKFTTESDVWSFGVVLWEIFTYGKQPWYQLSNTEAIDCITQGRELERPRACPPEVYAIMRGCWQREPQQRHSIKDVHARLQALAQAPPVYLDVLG
Type: biochemical
Method: Inhibition of trkA Tyrosine Kinase Activity
Selected heterocyclic substituted pyrazolones were tested for their ability to inhibit the kinase activity of baculovirus-expressed human trkA cytoplasmic domain using an ELISA-based assay as previously described (Angeles et al., Anal. Biochem. 236: 49-55, 1996). Briefly, a 96-well microtiter plate was coated with substrate solution (recombinant human phospholipase C-γl/glutathione S-transferase fusion protein (Rotin et al., EMBO J., 11: 559-567, 1992). Inhibition studies were performed in 100 μl assay mixtures containing 50 mM Hepes, pH 7.4, 40 μM ATP, 10 mM MnCl2, 0.1% BSA, 2% DMSO, and various concentrations of inhibitor. The reaction was initiated by addition of trkA kinase and allowed to proceed for 15 minutes at 37° C. An antibody to phosphotyrosine (UBI) was then added, followed by a secondary enzyme-conjugated antibody, alkaline phosphatase-labelled goat anti-mouse IgG (Bio-Rad). The activity of the bound enzyme was measured via an amplified detection system (Gibco-BRL). Inhibition data were analyzed using the sigmoidal dose-response (variable slope) equation in GraphPad Prism.
With `O=C1NN=C(c2ccco2)C1=Cc1cn(Cc2ccccc2)c2ccccc12` [Compound 69] the “trkA % inhibition @ 1 uM” value was 35%.
`COc1ccc2[nH]cc(C=C3C(=O)NN=C3c3ccco3)c2c1` [Compound 51] was tested, and the “trkA % inhibition @ 1 uM” value was 56%.
`N#CCCn1cc(C=C2C(=O)NN=C2c2ccoc2)c2ccccc21` [Compound 65] was tested, and the “trkA % inhibition @ 1 uM” value was 22%.
`Cn1cc(C=C2C(=O)NN=C2c2ccoc2)c2ccccc21` [Compound 20] was tested, and the “trkA % inhibition @ 1 uM” value was 60%.
In the case of `Cc1cccc2c(C=C3C(=O)NN=C3c3ccoc3)c[nH]c12` [Compound 22], the “trkA % inhibition @ 1 uM” value is reported as 44%.
`O=C1NN=C(c2nccs2)C1=Cc1cn(CCOCc2ccccc2)c2ccccc12` [Compound 72] was tested, and the “trkA % inhibition @ 1 uM” value was 38%.
`Cc1cc(C)c(C=C2C(=O)NN=C2c2c(C)coc2C)[nH]1` [Compound 27] was tested, and the “trkA % inhibition @ 1 uM” value was 49%.
With `Cn1cccc1C1=NNC(=O)C1=Cc1c[nH]c2ccc(F)cc12` [Compound 56] the “trkA % inhibition @ 1 uM” value was 48%.
With `O=C1NN=C(c2ccco2)C1=Cc1ncc[nH]1` [Compound 54] the “trkA % inhibition @ 1 uM” value was 20%.
For `O=C1NN=C(c2ccoc2)C1=Cc1c[nH]c2ccc(Cl)cc12` [Compound 17], the “trkA % inhibition @ 1 uM” value was 52%.
With `Cc1nc(C)c(C2=NNC(=O)C2=Cc2c[nH]c3ccccc23)s1` [Compound 13] the “trkA % inhibition @ 1 uM” value was 45%.

What follows are compounds tested against T2, recombinant human baculoviral VEGFR2 cyctoplasmic domain (Homo sapiens, UniProt P35968) (assay: VEGFR2 kinase inhibition assay (ELISA-based, time-resolved fluorescence)). Settings: 1 uM compound; 30 μM ATP.
T2 construct: recombinant human baculoviral VEGFR2 cyctoplasmic domain; host or cells: baculovirus expression system
T2 sequence (P35968 786-1356 limits assumed): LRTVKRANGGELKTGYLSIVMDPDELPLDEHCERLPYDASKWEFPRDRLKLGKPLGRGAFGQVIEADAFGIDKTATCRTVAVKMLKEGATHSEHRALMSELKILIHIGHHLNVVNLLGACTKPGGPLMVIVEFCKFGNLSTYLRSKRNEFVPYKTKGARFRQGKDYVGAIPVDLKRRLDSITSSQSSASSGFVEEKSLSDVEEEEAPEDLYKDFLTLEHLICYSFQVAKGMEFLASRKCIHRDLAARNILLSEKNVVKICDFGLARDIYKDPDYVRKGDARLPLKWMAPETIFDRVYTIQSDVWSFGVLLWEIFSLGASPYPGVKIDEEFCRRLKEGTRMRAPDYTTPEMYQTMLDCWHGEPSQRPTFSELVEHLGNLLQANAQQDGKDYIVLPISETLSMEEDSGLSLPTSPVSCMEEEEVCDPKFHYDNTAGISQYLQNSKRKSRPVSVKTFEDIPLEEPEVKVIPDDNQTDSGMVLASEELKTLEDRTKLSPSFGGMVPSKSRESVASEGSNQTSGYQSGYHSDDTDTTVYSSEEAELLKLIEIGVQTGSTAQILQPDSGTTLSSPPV
Type: biochemical
In the case of `O=C1NN=C(c2ccco2)C1=Cc1cn(Cc2ccccc2)c2ccccc12` [Compound 69], the “VEGFR-2 kinase % inhibition @ 1 uM” value is reported as 5%.
For `COc1ccc2[nH]cc(C=C3C(=O)NN=C3c3ccco3)c2c1` [Compound 51], the “VEGFR-2 kinase % inhibition @ 1 uM” value was 55%.
With `N#CCCn1cc(C=C2C(=O)NN=C2c2ccoc2)c2ccccc21` [Compound 65] the “VEGFR-2 kinase % inhibition @ 1 uM” value was 43%.
In the case of `Cn1cc(C=C2C(=O)NN=C2c2ccoc2)c2ccccc21` [Compound 20], the “VEGFR-2 kinase % inhibition @ 1 uM” value is reported as 67%.
For `Cc1cccc2c(C=C3C(=O)NN=C3c3ccoc3)c[nH]c12` [Compound 22], the “VEGFR-2 kinase % inhibition @ 1 uM” value was 41%.
With `O=C1NN=C(c2nccs2)C1=Cc1cn(CCOCc2ccccc2)c2ccccc12` [Compound 72] the “VEGFR-2 kinase % inhibition @ 1 uM” value was 3%.
For `Cc1cc(C)c(C=C2C(=O)NN=C2c2c(C)coc2C)[nH]1` [Compound 27], the “VEGFR-2 kinase % inhibition @ 1 uM” value was 40%.
For `Cn1cccc1C1=NNC(=O)C1=Cc1c[nH]c2ccc(F)cc12` [Compound 56], the “VEGFR-2 kinase % inhibition @ 1 uM” value was 8%.
For `O=C1NN=C(c2ccco2)C1=Cc1ncc[nH]1` [Compound 54], the “VEGFR-2 kinase % inhibition @ 1 uM” value was 4%.
`O=C1NN=C(c2ccoc2)C1=Cc1c[nH]c2ccc(Cl)cc12` [Compound 17] was tested, and the “VEGFR-2 kinase % inhibition @ 1 uM” value was 48%.
With `Cc1nc(C)c(C2=NNC(=O)C2=Cc2c[nH]c3ccccc23)s1` [Compound 13] the “VEGFR-2 kinase % inhibition @ 1 uM” value was 25%.

Each compound was assayed against T3, baculoviral GST-MLK3KD (Homo sapiens, UniProt Q16584) (assay: Mixed Lineage Kinase-3 inhibition assay (Millipore Multiscreen plate, 32P)). Settings: 1 uM compound; 100 μM ATP.
T3 construct: 2 μg/ml of baculoviral GST-MLK3KD; GST (N); host or cells: baculovirus expression system
T3 sequence (Q16584 117-379 limits assumed): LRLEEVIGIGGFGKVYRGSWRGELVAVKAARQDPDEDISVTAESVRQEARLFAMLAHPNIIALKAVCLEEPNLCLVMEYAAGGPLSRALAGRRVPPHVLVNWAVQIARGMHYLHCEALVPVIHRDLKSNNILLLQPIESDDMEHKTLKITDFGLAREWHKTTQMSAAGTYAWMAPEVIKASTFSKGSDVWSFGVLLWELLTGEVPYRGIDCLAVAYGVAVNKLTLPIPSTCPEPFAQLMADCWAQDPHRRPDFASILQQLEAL
Type: biochemical
Method: Inhibition of Mixed Lineage Kinase-3 Activity
Assays were performed using the Millipore Multiscreen plate format as described for MLK1. Briefly, each 50-μl assay mixture contained 20 mM Hepes, pH 7, 1 mM EGTA, 10 mM MgCl2, 1 mM DTT, 25 mM β-glycerophosphate, 100 μM ATP, 0.25 μCi [γ-^32P]ATP, 0.1% BSA, 500 μg/ml myelin basic protein (UBI #13-104), 2% DMSO, various concentrations of test compound, and 2 μg/ml of baculoviral GST-MLK3KD. Samples were incubated for 15 min at 37° C. The reaction was stopped by adding ice cold 50% TCA and the proteins were allowed to precipitate for 30 min at 4° C. The plates were then washed with ice cold 25% TCA. Supermix scintillation cocktail was added, and the plates were allowed to equilibrate for 1-2 hours prior to counting.
With `O=C1NN=C(c2ccco2)C1=Cc1cn(Cc2ccccc2)c2ccccc12` [Compound 69] the “MLK-3 Kinase % inhibition @ 1 uM” value was 9%.
In the case of `COc1ccc2[nH]cc(C=C3C(=O)NN=C3c3ccco3)c2c1` [Compound 51], the “MLK-3 Kinase % inhibition @ 1 uM” value is reported as 47%.
In the case of `N#CCCn1cc(C=C2C(=O)NN=C2c2ccoc2)c2ccccc21` [Compound 65], the “MLK-3 Kinase % inhibition @ 1 uM” value is reported as 7%.
In the case of `Cn1cc(C=C2C(=O)NN=C2c2ccoc2)c2ccccc21` [Compound 20], the “MLK-3 Kinase % inhibition @ 1 uM” value is reported as 57%.
`Cc1cccc2c(C=C3C(=O)NN=C3c3ccoc3)c[nH]c12` [Compound 22] was tested, and the “MLK-3 Kinase % inhibition @ 1 uM” value was 24%.
`O=C1NN=C(c2nccs2)C1=Cc1cn(CCOCc2ccccc2)c2ccccc12` [Compound 72] was tested, and the “MLK-3 Kinase % inhibition @ 1 uM” value was 28%.
In the case of `Cc1cc(C)c(C=C2C(=O)NN=C2c2c(C)coc2C)[nH]1` [Compound 27], the “MLK-3 Kinase % inhibition @ 1 uM” value is reported as 44%.
For `Cn1cccc1C1=NNC(=O)C1=Cc1c[nH]c2ccc(F)cc12` [Compound 56], the “MLK-3 Kinase % inhibition @ 1 uM” value was −1%.
`O=C1NN=C(c2ccco2)C1=Cc1ncc[nH]1` [Compound 54] was tested, and the “MLK-3 Kinase % inhibition @ 1 uM” value was 0%.
For `O=C1NN=C(c2ccoc2)C1=Cc1c[nH]c2ccc(Cl)cc12` [Compound 17], the “MLK-3 Kinase % inhibition @ 1 uM” value was 19%.
With `Cc1nc(C)c(C2=NNC(=O)C2=Cc2c[nH]c3ccccc23)s1` [Compound 13] the “MLK-3 Kinase % inhibition @ 1 uM” value was 17%.

The compounds below were run against T4, recombinant human baculovirus-expressed VEGFR1 cytoplasmic domain (Homo sapiens, UniProt P17948) (assay: VEGFR1 kinase inhibition assay (ELISA-based, time-resolved fluorescence)). Settings: 1 uM compound; 30 μM ATP.
T4 construct: recombinant human baculovirus-expressed VEGFR1 cytoplasmic domain; host or cells: baculovirus expression system
T4 sequence (P17948 781-1338 limits assumed): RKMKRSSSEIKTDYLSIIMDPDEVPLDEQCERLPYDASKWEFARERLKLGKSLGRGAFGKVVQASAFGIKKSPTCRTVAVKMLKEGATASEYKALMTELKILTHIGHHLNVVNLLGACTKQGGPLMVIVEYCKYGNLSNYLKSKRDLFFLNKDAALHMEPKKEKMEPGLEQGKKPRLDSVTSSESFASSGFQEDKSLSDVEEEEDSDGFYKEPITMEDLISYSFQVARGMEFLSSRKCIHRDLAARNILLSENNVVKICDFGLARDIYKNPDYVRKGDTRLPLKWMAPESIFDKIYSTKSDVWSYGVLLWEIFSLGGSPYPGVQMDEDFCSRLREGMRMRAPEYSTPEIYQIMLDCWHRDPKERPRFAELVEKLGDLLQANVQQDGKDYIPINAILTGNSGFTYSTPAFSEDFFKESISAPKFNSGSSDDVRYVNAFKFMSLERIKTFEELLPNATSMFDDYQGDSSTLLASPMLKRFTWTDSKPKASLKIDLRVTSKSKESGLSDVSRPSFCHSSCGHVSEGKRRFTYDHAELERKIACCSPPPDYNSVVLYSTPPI
Type: biochemical
Method: Inhibition of Vascular Endothelial Growth Factor Receptor-1 Kinase Activity
The VEGFR1 kinase activity assay utilizes an ELISA-based format in a 96-well FluoroNUNC Maxisorp plate with a time-resolved fluorescence readout. The plate was coated with 100 μl/well of substrate solution (recombinant human PLC-γ/GST) at a concentration of 40 μg/ml in Tris buffered saline (TBS). The VEGFR1 activity was assayed in 100-μl assay micture containing 50 mM HEPES (pH 7.4), 30 μM ATP, 10 mM MnCl2, 0.1% BSA, 2% DMSO, and 300 ng/ml prephosphorylated recombinant human baculovirus-expressed VEGFR1 cytoplasmic domain. Compounds were screened for inhibition of the VEGFR1 kinase activity at a concentration of 1 μM. The kinase reaction was allowed to proceed at 37° C. for 15 minutes. The detection antibody, europium-labeled anti-phosphotyrosine antibody (Wallac #CR04-100), was added at 1:5000 dilution in block buffer (3% BSA in TBST). After a 1-hour incubation at 37° C., 100 μl of enhancement solution (Wallac #1244-105) was added and the plate was gently agitated. After 5 min, the fluorescence of the resulting solution was measured using the BMG Fluostar (Model # 403).
`O=C1NN=C(c2ccco2)C1=Cc1cn(Cc2ccccc2)c2ccccc12` [Compound 69] was tested, and the “VEGFR-1 kinase % inhibition @ 1 uM” value was 5%.
`COc1ccc2[nH]cc(C=C3C(=O)NN=C3c3ccco3)c2c1` [Compound 51] was tested, and the “VEGFR-1 kinase % inhibition @ 1 uM” value was 25%.
`N#CCCn1cc(C=C2C(=O)NN=C2c2ccoc2)c2ccccc21` [Compound 65] was tested, and the “VEGFR-1 kinase % inhibition @ 1 uM” value was 22%.
With `Cn1cc(C=C2C(=O)NN=C2c2ccoc2)c2ccccc21` [Compound 20] the “VEGFR-1 kinase % inhibition @ 1 uM” value was 45%.
For `Cc1cccc2c(C=C3C(=O)NN=C3c3ccoc3)c[nH]c12` [Compound 22], the “VEGFR-1 kinase % inhibition @ 1 uM” value was 23%.
For `O=C1NN=C(c2nccs2)C1=Cc1cn(CCOCc2ccccc2)c2ccccc12` [Compound 72], the “VEGFR-1 kinase % inhibition @ 1 uM” value was 12%.
With `Cc1cc(C)c(C=C2C(=O)NN=C2c2c(C)coc2C)[nH]1` [Compound 27] the “VEGFR-1 kinase % inhibition @ 1 uM” value was 11%.
For `Cn1cccc1C1=NNC(=O)C1=Cc1c[nH]c2ccc(F)cc12` [Compound 56], the “VEGFR-1 kinase % inhibition @ 1 uM” value was 5%.
`O=C1NN=C(c2ccco2)C1=Cc1ncc[nH]1` [Compound 54] was tested, and the “VEGFR-1 kinase % inhibition @ 1 uM” value was 5%.
With `O=C1NN=C(c2ccoc2)C1=Cc1c[nH]c2ccc(Cl)cc12` [Compound 17] the “VEGFR-1 kinase % inhibition @ 1 uM” value was 17%.
For `Cc1nc(C)c(C2=NNC(=O)C2=Cc2c[nH]c3ccccc23)s1` [Compound 13], the “VEGFR-1 kinase % inhibition @ 1 uM” value was 39%.
